#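 Where inhibition never reached the appropriate level, the endpoint shown equals the highest concentration tested. Otherwise, values were interpolated linearly from a five-concentration, 48-hour dose response in 96-well plates. The concentration for 50% growth inhibition is given as GI50.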 Active and inactive are the calls of the source. Cut-off read from the data, not from the text of the source: active = GI50 up to about 1.1 µM and inactive = higher.
# Key:
# Assay in all cases: DTP human tumour cell line panel, 48 h
# SNB-19 = system: SNB-19
# 786-0 = system: 786-0
# SW-620 = system: SW-620
# U-251 = system: U-251
# UACC-62 = system: UACC-62
# OVCAR-8 = system: OVCAR-8
# SF-539 = system: SF-539
# NCI-H23 = system: NCI-H23
# TK-10 = system: TK-10
# LOX IMVI = system: LOX IMVI
# PC-3 = system: PC-3
# SK-OV-3 = system: SK-OV-3
# RXF 393 = system: RXF 393
# HT-29 = system: HT-29
# SF-295 = system: SF-295
# SNB-75 = system: SNB-75
# OVCAR-5 = system: OVCAR-5
# SN12C = system: SN12C
# SK-MEL-5 = system: SK-MEL-5
# SK-MEL-28 = system: SK-MEL-28
# MDA-MB-435 = system: MDA-MB-435
# A498 = system: A498
# RPMI-8226 = system: RPMI-8226
# EKVX = system: EKVX
# M14 = system: M14
# T47D = system: T47D
# HCC 2998 = system: HCC 2998
# COLO 205 = system: COLO 205
# OVCAR-3 = system: OVCAR-3
# MDA-MB-231 = system: MDA-MB-231
# Malme-3M = system: Malme-3M
# A549 = system: A549
# HL-60 = system: HL-60
# HOP-92 = system: HOP-92
# UO-31 = system: UO-31
# SF-268 = system: SF-268
# HCT-116 = system: HCT-116
# KM12 = system: KM12
# BT-549 = system: BT-549
# MCF7 = system: MCF7
# ACHN = system: ACHN
# Hs-578T = system: Hs-578T
# IGROV-1 = system: IGROV-1
# HOP-62 = system: HOP-62
# MOLT-4 = system: MOLT-4
# NCI-H522 = system: NCI-H522
# K562 = system: K562
# MDA-N = system: MDA-N
# CCRF-CEM = system: CCRF-CEM
# NCI-H460 = system: NCI-H460
# DU-145 = system: DU-145
# SR = system: SR
# OVCAR-4 = system: OVCAR-4
# NCI-H226 = system: NCI-H226
# UACC-257 = system: UACC-257
# CAKI-1 = system: CAKI-1
# SK-MEL-2 = system: SK-MEL-2
# NCI/ADR-RES = system: NCI/ADR-RES
# HCT-15 = system: HCT-15
smiles,measurement,setting,value
O=C(Nn1c(-c2ccccc2)nc2ccccc2c1=O)c1ccc(CS)cc1,GI50,SNB-19,> 100 µM (inactive)
same,GI50,786-0,24.4 µM (inactive)
same,GI50,SW-620,31.1 µM (inactive)
same,GI50,U-251,27.6 µM (inactive)
same,GI50,UACC-62,27.7 µM (inactive)
same,GI50,OVCAR-8,57.1 µM (inactive)
same,GI50,SF-539,24.5 µM (inactive)
same,GI50,NCI-H23,49.9 µM (inactive)
same,GI50,TK-10,> 100 µM (inactive)
same,GI50,LOX IMVI,1.67 µM (inactive)
same,GI50,PC-3,20.2 µM (inactive)
same,GI50,SK-OV-3,82.8 µM (inactive)
same,GI50,RXF 393,44.7 µM (inactive)
same,GI50,HT-29,53 µM (inactive)
same,GI50,SF-295,> 100 µM (inactive)
same,GI50,SNB-75,39.7 µM (inactive)
same,GI50,OVCAR-5,> 100 µM (inactive)
same,GI50,SN12C,36.6 µM (inactive)
same,GI50,SK-MEL-5,11.8 µM (inactive)
same,GI50,SK-MEL-28,69.8 µM (inactive)
same,GI50,MDA-MB-435,41.8 µM (inactive)
same,GI50,A498,24.5 µM (inactive)
same,GI50,RPMI-8226,33.2 µM (inactive)
same,GI50,EKVX,36.7 µM (inactive)
same,GI50,M14,47.6 µM (inactive)
same,GI50,T47D,> 100 µM (inactive)
same,GI50,HCC 2998,> 100 µM (inactive)
same,GI50,COLO 205,60.3 µM (inactive)
same,GI50,OVCAR-3,67.6 µM (inactive)
same,GI50,MDA-MB-231,37 µM (inactive)
same,GI50,Malme-3M,36.6 µM (inactive)
same,GI50,A549,36.7 µM (inactive)
same,GI50,HL-60,16 µM (inactive)
same,GI50,HOP-92,34.9 µM (inactive)
same,GI50,UO-31,46.3 µM (inactive)
same,GI50,SF-268,26.2 µM (inactive)
same,GI50,HCT-116,39.4 µM (inactive)
same,GI50,KM12,81.1 µM (inactive)
same,GI50,BT-549,22.4 µM (inactive)
same,GI50,MCF7,29.8 µM (inactive)
same,GI50,ACHN,54.5 µM (inactive)
same,GI50,Hs-578T,35.6 µM (inactive)
same,GI50,IGROV-1,26.1 µM (inactive)
same,GI50,HOP-62,> 100 µM (inactive)
same,GI50,MOLT-4,16.6 µM (inactive)
same,GI50,NCI-H522,52.2 µM (inactive)
same,GI50,K562,38.2 µM (inactive)
same,GI50,MDA-N,61.2 µM (inactive)
same,GI50,CCRF-CEM,5.89 µM (inactive)
same,GI50,NCI-H460,> 100 µM (inactive)
same,GI50,DU-145,39.4 µM (inactive)
same,GI50,SR,19.5 µM (inactive)
same,GI50,OVCAR-4,98.4 µM (inactive)
same,GI50,NCI-H226,37.7 µM (inactive)
same,GI50,UACC-257,> 100 µM (inactive)
C[C@]12CC[C@H](O)CC1=CC[C@@H]1[C@@H]2CC[C@]2(C)C(=N/O)/C(=C/c3ccc([N+](=O)[O-])cc3)C[C@@H]12,GI50,SNB-19,10.6 µM (inactive)
same,GI50,786-0,3.03 µM (inactive)
same,GI50,SW-620,9.86 µM (inactive)
same,GI50,UACC-62,10.9 µM (inactive)
same,GI50,CAKI-1,7.05 µM (inactive)
same,GI50,OVCAR-8,2.82 µM (inactive)
same,GI50,SF-539,4.09 µM (inactive)
same,GI50,NCI-H23,5.94 µM (inactive)
same,GI50,LOX IMVI,8.34 µM (inactive)
same,GI50,PC-3,3.22 µM (inactive)
same,GI50,SK-OV-3,0.403 µM (active)
same,GI50,RXF 393,3.6 µM (inactive)
same,GI50,HT-29,6.15 µM (inactive)
same,GI50,SF-295,0.45 µM (active)
same,GI50,SNB-75,4.32 µM (inactive)
same,GI50,OVCAR-5,1.61 µM (inactive)
same,GI50,SN12C,3.08 µM (inactive)
same,GI50,SK-MEL-5,1.18 µM (inactive)
same,GI50,SK-MEL-28,5.9 µM (inactive)
same,GI50,MDA-MB-435,8.38 µM (inactive)
same,GI50,A498,3.33 µM (inactive)
same,GI50,RPMI-8226,3.59 µM (inactive)
same,GI50,EKVX,2.59 µM (inactive)
same,GI50,M14,6.75 µM (inactive)
same,GI50,T47D,2.48 µM (inactive)
same,GI50,HCC 2998,2.37 µM (inactive)
same,GI50,COLO 205,3.53 µM (inactive)
same,GI50,OVCAR-3,1.76 µM (inactive)
same,GI50,Malme-3M,7.43 µM (inactive)
same,GI50,A549,0.782 µM (active)
same,GI50,HL-60,1.91 µM (inactive)
same,GI50,HOP-92,3.29 µM (inactive)
same,GI50,UO-31,8.22 µM (inactive)
same,GI50,SF-268,10.9 µM (inactive)
same,GI50,HCT-116,3.93 µM (inactive)
same,GI50,KM12,0.841 µM (active)
same,GI50,BT-549,10.5 µM (inactive)
same,GI50,SK-MEL-2,4.53 µM (inactive)
same,GI50,NCI/ADR-RES,6.03 µM (inactive)
same,GI50,MCF7,3.78 µM (inactive)
same,GI50,ACHN,4.13 µM (inactive)
same,GI50,HCT-15,4.78 µM
same,GI50,Hs-578T,12.1 µM (inactive)
same,GI50,IGROV-1,7.48 µM (inactive)
same,GI50,HOP-62,0.619 µM (active)
same,GI50,MOLT-4,3.66 µM (inactive)
same,GI50,NCI-H522,3.18 µM (inactive)
same,GI50,K562,3.3 µM (inactive)
same,GI50,MDA-N,6.93 µM (inactive)
same,GI50,CCRF-CEM,5.94 µM (inactive)
same,GI50,NCI-H460,0.519 µM (active)
same,GI50,DU-145,6.73 µM (inactive)
same,GI50,SR,2.51 µM (inactive)
same,GI50,OVCAR-4,5.33 µM (inactive)
same,GI50,NCI-H226,1.16 µM (inactive)
same,GI50,UACC-257,3.65 µM (inactive)
